Measurements published in US12065433B2, “Positive allosteric modulators of the muscarinic acetylcholine receptor M1” (Vanderbilt University, priority 2018, dated 2024).

Molecular target: T1, human mAChR M1 (Homo sapiens, UniProt P11229)
T1 sequence (P11229 1-460): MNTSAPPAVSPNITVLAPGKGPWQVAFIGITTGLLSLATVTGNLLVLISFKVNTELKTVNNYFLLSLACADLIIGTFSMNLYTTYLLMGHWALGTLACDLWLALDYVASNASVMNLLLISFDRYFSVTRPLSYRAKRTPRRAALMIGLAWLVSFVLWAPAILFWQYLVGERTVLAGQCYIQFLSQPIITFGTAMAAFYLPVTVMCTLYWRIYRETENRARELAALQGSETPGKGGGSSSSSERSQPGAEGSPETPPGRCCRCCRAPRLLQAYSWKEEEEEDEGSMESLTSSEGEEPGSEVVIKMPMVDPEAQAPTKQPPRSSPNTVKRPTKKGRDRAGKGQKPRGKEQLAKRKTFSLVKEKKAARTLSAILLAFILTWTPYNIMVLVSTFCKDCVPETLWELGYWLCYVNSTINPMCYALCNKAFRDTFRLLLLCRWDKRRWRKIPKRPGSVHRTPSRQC
Assay: mAChR M1 cell-based functional assay (calcium mobilization, PAM mode)
Settings: CHO-K1 cells stably expressing hM1, calcium flux (Fluo-4); for EC50: concentration-dependent increase in the EC20 acetylcholine response; for Emax: potentiation of EC20 acetylcholine response
Excerpt: Chinese hamster ovary (CHO-K1) cells stably expressing rat (r)M1 were purchased from the American Type Culture Collection and cultured according to their indicated protocol. CHO cells stably expressing human (h)M2, hM3, and hM5 were described previously (Levey, et al., 1991); hM1 and hM4 cDNAs were purchased from Missouri S&T cDNA Resource; rM4 cDNA was provided by T. I. Bonner (National Institutes of Health, Bethesda, MD). rM2 and rM3 were cloned from a rat brain cDNA library and sequence verified. hM1, rM2, rM3, hM4, and rM4 cDNAs were used to stably transfect CHO-K1 cells purchased from the American Type Culture Collection using Lipofectamine2000. To make stable rM2, hM2, rM3, hM4, and rM4 cell lines for use in calcium mobilization assays, these cells also were stably transfected with a chimeric G-protein (Gqi5) (provided by B. R. Conklin, University of California, San Francisco) using Lipofectamine 2000. rM1, hM1, rM3, hM3, rM5, and hM5 cells were grown in Ham's F-12 medium containing 10% heat-inactivated fetal bovine serum (FBS), 20 mM HEPES, and 50 μg/mL G418 sulfate. rM2-Gqi5, hM2-Gqi5, and hM4-Gqi5 cells were grown in the same medium also containing 500 μg/mL Hygromycin B. Stable rM4-Gqi5 cells were grown in DMEM containing 10% heat-inactivated FBS, 20 mM HEPES, 400 μg/mL G418 sulfate, and 500 μg/mL Hygromycin B.
For high throughput measurement of agonist-evoked increases in intracellular calcium, CHO-K1 cells stably expressing muscarinic receptors were plated in growth medium lacking G418 and hygromycin at 15,000 cells/20 μL/well in Greiner 384-well black-walled, tissue culture (TC)-treated, clear-bottom plates (VWR). Cells were incubated overnight at 37° C. and 5% CO2. The next day, cells were washed using an ELX 405 (BioTek) with four washes (80 μL) of assay buffer then aspirated to 20 μL. Next, 20 μL of 16 μM Fluo-4/acetoxymethyl ester (Invitrogen, Carlsbad, CA) prepared as a 2.3 mM stock in DMSO and mixed in a 1:1 ratio with 10% (w/v) Pluronic F-127 and diluted in assay buffer was added to the wells and the cell plates were incubated for 50 min at 37° C. and 5% CO2. Dye was removed by washing with the ELX 405 (four […], washes of assay buffer) then aspirated to 20 μL. Compound master plates were formatted in an 11 point CRC format (1:3 dilutions) in 100% DMSO with a starting concentration of 10 mM using the BRAVO liquid handler (Agilent). Test compound CRCs were then transferred to daughter plates (240 nL) using the Echo acoustic plate reformatter (Labcyte, Sunnyvale, CA) and then diluted into assay buffer (40 μL) to a 2× stock using a Thermo Fisher Combi (Thermo Fisher Scientific, Waltham, MA).
Calcium flux was measured using the Functional Drug Screening System (FDSS) 6000 (Hamamatsu Corporation, Tokyo, Japan) as an increase in the fluorescent static ratio. Compounds were applied to cells (20 μL, 2×) using the automated system of the FDSS 6000 at 4 s into the 300 s protocol and the data were collected at 1 Hz. At 144 s into the 300 s protocol, 10 μL of an EC20 concentration of the muscarinic receptor agonist acetylcholine was added (5×), followed by the addition of 12 μL an EC80 concentration of acetylcholine at the 230 s time point (5×). Agonist activity was analyzed as a concentration-dependent increase in calcium mobilization upon compound addition. Emax values for agonist activity are expressed relative to the maximum for acetylcholine. Positive allosteric modulator activity was analyzed as a concentration-dependent increase in the EC20 acetylcholine response. Antagonist activity was analyzed as a concentration-dependent decrease in the EC80 acetylcholine response. Concentration-response curves were generated using a four-parameter logistical equation in XLfit curve fitting software (IDBS, Bridgewater, NJ) for Excel (Microsoft, Redmond, WA) or Prism (GraphPad Software, Inc., San Diego, CA). […]

## Cc1c(Cc2ccc(-n3cccn3)cc2)cc(C(=O)N[C@H]2CCOC[C@@H]2O)c2c1OCO2 [Compound 18, N-[(3R,4S)-3-hydroxytetrahydropyran-4-yl]-7-methyl-6-[(4-pyrazol-1-ylphenyl)methyl]-1,3-benzodioxole-4-carboxamide]
  EC50: 260 nM
  Emax: 75%

## Cn1ccc(-c2ccc(Cc3cc4c(c(C(=O)NC5CCOCC5)c3)OCO4)cn2)n1 [Compound 15, 6-[[6-(1-methylpyrazol-3-yl)-3-pyridyl]methyl]-N-tetrahydropyran-4-yl-1,3-benzodioxole-4-carboxamide]
  Emax: 49%

## CC(C)(O)CNC(=O)c1cc(Cc2ccc(-n3cccn3)cc2)cc2c1OCO2 [Compound 7, N-(2-hydroxy-2-methyl-propyl)-6-[(4-pyrazol-1-ylphenyl)methyl]-1,3-benzodioxole-4-carboxamide]
  Emax: 61%

## O=C(NC1CC2(COC2)C1)c1cc(Cc2ccc(-n3cccn3)cc2)cc2c1OCO2 [Compound 3, N-(2-oxaspiro[3.3]heptan-6-yl)-6-[(4-pyrazol-1-ylphenyl)methyl]-1,3-benzodioxole-4-carboxamide]
  Emax: 59%

## Cc1nc(-c2ccc(Cc3cc4c(c(C(=O)N[C@H]5CCCC[C@@H]5O)c3)OCO4)cc2)co1 [Compound 17, N-[(1S,2S)-2-hydroxycyclohexyl]-6-[[4-(2-methyloxazol-4-yl)phenyl]methyl]-1,3-benzodioxole-4-carboxamide]
  EC50: 1150 nM
  Emax: 66%

## O=C(N[C@H]1CC[C@@H]1O)c1cc(Cc2ccc(-n3cccn3)cc2)cc2c1OCO2 [Compound 5, N-[(1S,2S)-2-hydroxycyclobutyl]-6-[(4-pyrazol-1-ylphenyl)methyl]-1,3-benzodioxole-4-carboxamide]
  EC50: 3670 nM
  Emax: 55%

## Cn1ccc(-c2ccc(Cc3cc4c(c(C(=O)N[C@H]5CCOC[C@@H]5O)c3)OCO4)cn2)n1 [Compound 9, N-[(3R,4S)-3-hydroxytetrahydropyran-4-yl]-6-[[6-(1-methylpyrazol-3-yl)-3-pyridyl]methyl]-1,3-benzodioxole-4-carboxamide]
  EC50: 1420 nM
  Emax: 75%

## Cc1c(Cc2ccc(-c3ccn(C)n3)cc2)cc(C(=O)N[C@H]2CCCC[C@@H]2O)c2c1OCO2 [Compound 21, N-[(1S,2S)-2-hydroxycyclohexyl]-7-methyl-6-[[4-(1-methylpyrazol-3-yl)phenyl]methyl]-1,3-benzodioxole-4-carboxamide]
  EC50: 410 nM
  Emax: 80%

## Cn1ccc(-c2ccc(Cc3cc4c(c(C(=O)N[C@H]5CCCCC[C@@H]5O)c3)OCO4)cn2)n1 [Compound 10, N-[(1S,2S)-2-hydroxycycloheptyl]-6-[[6-(1-methylpyrazol-3-yl)-3-pyridyl]methyl]-1,3-benzodioxole-4-carboxamide]
  EC50: 1190 nM
  Emax: 74%

## O=C(N[C@H]1CCC[C@@H]1O)c1cc(Cc2ccc(-n3cccn3)cc2)cc2c1OCO2 [Compound 4, N-[(1S,2S)-2-hydroxycyclopentyl]-6-[(4-pyrazol-1-ylphenyl)methyl]-1,3-benzodioxole-4-carboxamide]
  EC50: 2480 nM
  Emax: 69%

## Cn1ccc(-c2ccc(Cc3cc4c(c(C(=O)NC5CC6(COC6)C5)c3)OCO4)cn2)n1 [Compound 14, 6-[[6-(1-methylpyrazol-3-yl)-3-pyridyl]methyl]-N-(2-oxaspiro[3.3]heptan-6-yl)-1,3-benzodioxole-4-carboxamide]
  Emax: 57%

## O=C(N[C@H]1CCOC[C@@H]1O)c1cc(Cc2ccc(-n3cccn3)cc2)cc2c1OCO2 [Compound 1, N-[(3R,4S)-3-hydroxytetrahydropyran-4-yl]-6-[(4-pyrazol-1-ylphenyl)methyl]-1,3-benzodioxole-4-carboxamide]
  EC50: 920 nM
  Emax: 81%

## [2H]C1([2H])Oc2c(C(=O)N[C@H]3CCOC[C@@H]3O)cc(Cc3ccc(-n4cccn4)cc3)c(C)c2O1 [Compound 22, 6-(4-(1H-pyrazol-1-yl)benzyl)-N-((3R,4S)-3-hydroxytetrahydro-2H-pyran-4-yl)-7-methylbenzo[d][1,3]dioxole-2,2-d2-4-carboxamide]
  EC50: 44 nM
  Emax: 72%

## [2H]C1([2H])Oc2c(C(=O)N[C@H]3CCC[C@@H]3O)cc(Cc3ccc(-n4cccn4)cc3)c(C)c2O1 [Compound 24, 6-(4-(1H-pyrazol-1-yl)benzyl)-N-((1S,2S)-2-hydroxycyclopentyl)-7-methylbenzo[d][1,3]dioxole-2,2-d2-4-carboxamide]
  EC50: 1000 nM
  Emax: 70%

## Cc1nc(-c2ccc(Cc3cc4c(c(C(=O)N[C@H]5CCOC[C@@H]5O)c3)OCO4)cc2)co1 [Compound 16, N-[(3R,4S)-3-hydroxytetrahydropyran-4-yl]-6-[[4-(2-methyloxazol-4-yl)phenyl]methyl]-1,3-benzodioxole-4-carboxamide]
  EC50: 1810 nM
  Emax: 78%

## Cc1c(Cc2ccc(-n3cccn3)cc2)cc(C(=O)N[C@H]2CCCC[C@@H]2O)c2c1OCO2 [Compound 19, N-[(1S,2S)-2-hydroxycyclohexyl]-7-methyl-6-[(4-pyrazol-1-ylphenyl)methyl]-1,3-benzodioxole-4-carboxamide]
  EC50: 420 nM
  Emax: 78%

## Cn1ccc(-c2ccc(Cc3cc4c(c(C(=O)N[C@H]5CC[C@@H]5O)c3)OCO4)cn2)n1 [Compound 13, N-[(1S,2S)-2-hydroxycyclobutyl]-6-[[6-(1-methylpyrazol-3-yl)-3-pyridyl]methyl]-1,3-benzodioxole-4-carboxamide]
  Emax: 65%

## O=C(N[C@H]1CCCC[C@@H]1O)c1cc(Cc2ccc(-n3cccn3)cc2)cc2c1OCO2 [Compound 2, N-[(1S,2S)-2-hydroxycyclohexyl]-6-[(4-pyrazol-1-ylphenyl)methyl]-1,3-benzodioxole-4-carboxamide]
  EC50: 790 nM
  Emax: 82%

## Cn1ccc(-c2ccc(Cc3cc4c(c(C(=O)N[C@H]5CCC[C@@H]5O)c3)OCO4)cn2)n1 [Compound 12, N-[(1S,2S)-2-hydroxycyclopentyl]-6-[[6-(1-methylpyrazol-3-yl)-3-pyridyl]methyl]-1,3-benzodioxole-4-carboxamide]
  EC50: 6440 nM
  Emax: 74%

## Cc1c(Cc2ccc(-c3ccn(C)n3)cc2)cc(C(=O)N[C@H]2CCOC[C@@H]2O)c2c1OCO2 [Compound 20, N-[(3R,4S)-3-hydroxytetrahydropyran-4-yl]-7-methyl-6-[[4-(1-methylpyrazol-3-yl)phenyl]methyl]-1,3-benzodioxole-4-carboxamide]
  EC50: 330 nM
  Emax: 88%

## CC1(C)COCCC1NC(=O)c1cc(Cc2ccc(-n3cccn3)cc2)cc2c1OCO2 (stereo not shown) [Compound 8, N-(3,3-dimethyltetrahydropyran-4-yl)-6-[(4-pyrazol-1-ylphenyl)methyl]-1,3-benzodioxole-4-carboxamide]
  EC50: 7330 nM
  Emax: 67%
